Test results as given in PMC7114339 (Antiviral Research, 2020).
pEC50: −log10 of the molar value. “Also recorded” adds a separate entry of the source.

How the values were obtained:
LASV = experiment: cells; assay type: cell-based
tumor growth = settings: xenograft mouse model ref Wolfe et al., 2014; cited from earlier work
in vitro = settings: human
CCHFV = experiment: cells; assay type: cell-based
(AC)15 sequence = assay type: cell-based
HEV = assay type: cell-based
ZIKV = experiment: Antiviral activity in ZIKV-infected A549 cells; assay type: cell-based; settings: ZIKV RNA, MOI 0.1, 24 hpi
5′-UTR of HCoV-229E = assay type: cell-based
A549 cells = settings: human
HEVgt3c-Purine 5′-UTR = assay type: cell-based, HEV
[1] = tested on: persistently HEV-infected A549 cells; experiment: Cell viability of persistently HEV-infected A549 cells; settings: 2 nM, 72 h
5′-UTR of EBOV VP35 = assay type: cell-based
5′-UTR of EBOV VP30 mRNA = assay type: cell-based
VP35-HP+(AG)5 = assay type: cell-based, EBOV
[2] = Cell toxicity in murine hepatocytes; settings: mouse, murine hepatocytes (mock infected)
[3] = tested on: HEVgt3c-G4C and HEVgt3c-G4CC6A; assay type: cell-based, HEV
HCoV-229E [4] = experiment: microbe, parasite or virus in culture; assay type: cell-based; settings: Human coronavirus 229E, MRC5
(AG)15 construct = experiment: cells; assay type: cell-based; settings: read-out: inhibited translation
[5] = tested on: 5′-terminal hairpin of VP35 (VP35-HP only); assay type: cell-based, EBOV
5′-UTR of HEV (HEVgt3c) = assay type: cell-based; settings: 10 nM
HCoV-229E [6] = assay type: cell-based
5′-UTR of MERS-CoV = assay type: cell-based
[7] = 2014, cited from earlier work

## COC(=O)[C@H]1[C@@H](O)[C@@]2(O)c3c(OC)cc(O[C@@H]4O[C@@H]([C@H](O)CO)CO[C@H]4OC)cc3O[C@@]2(c2ccc(OC)cc2)[C@@H]1c1ccccc1 [Silvestrol]
LASV
  virus titer drop, LASV: ~ 4 log
LASV; Mus musculus, Hepatocyte
  pEC50: 7.29
Tumor growth
  tumor growth: reduced tumor growth efficiently
In vitro
  CC50: > 10 µM
CCHFV
  virus titer drop, CCHFV: 3 log
CCHFV; Mus musculus, Hepatocyte
  pEC50: 7.54
(AC)15 sequence
  induction of luciferase activity: 1.5 fold
HEV
  antiviral effect against HEV (extracellular viral RNA levels): confirmed the antiviral activity; also recorded: reduce the levels of extracellular HEV RNA
ZIKV
  pEC50: 8.97
5′-UTR of HCoV-229E
  sensitivity to translation inhibition: similarly sensitive
A549 cells
  CC50: 0.00942 µM
HEVgt3c-Purine 5′-UTR
  sensitivity to treatment: sensitive
[1]
  cytotoxicity: some cytotoxicity
5′-UTR of EBOV VP35
  sensitivity to translation inhibition: sensitive
5′-UTR of EBOV VP30 mRNA
  sensitivity to translation inhibition: similarly sensitive
VP35-HP+(AG)5
  effect on reporter activity: slightly increased translation inhibition
[2]
  CC50: > 5 µM
[3]
  inhibitory effect: gradual loss of the inhibitory effect
HCoV-229E [4]
  pEC50: 8.52
(AG)15 construct
  inhibition at 0.01 µM: ~55%
[5]
  effect on reporter activity: sufficient to mediate translation inhibition
5′-UTR of HEV (HEVgt3c)
  luciferase activity: reduced luciferase activity
HCoV-229E [6]
  virus titer in the supernatant reduced by: similar
HCoV-229E [6]; 100 nM
  infectious virus production: undetectable levels
5′-UTR of MERS-CoV
  sensitivity to translation inhibition: similarly sensitive

## CR-31-B
Tumor growth
  tumor growth: reduced tumor growth efficiently
[1]
  cytotoxicity: not cytotoxic
MRC-5 cells
  cytotoxic effects: no major cytotoxic effects
[7]; mice ref Wolfe et al.
  body weight or the number of blood cells: did not change
  toxicity in the gastrointestinal tract: no toxicity could be observed
[7]; two weeks after cessation of treatment ref Wolfe et al.
  serum levels of aminotransferases (ALT and AST), albumin, total bilirubin, creatinine: not significantly changed
